The text below walks through data of patent publication US8946199B2, “Co-administration of steroids and Zoledronic acid to prevent and treat side effects from Zoledronic acid infusion” (priority 2010, dated 2015).

Structures are written as SMILES.

The conditions of series [1]: patients with osteoporosis; Zoledronic Acid alone, 3 patients. The method, then: In theory, co-administration of a steroid for a short duration could decrease inflammation and therefore the incidence of ONJ. […] A study comparing the incidence of PDS with Zoledronic acid with a Zoledronic Acid and steroid combination is, however, feasible and such a study has been undertaken.
Eight patients with osteoporosis were treated with Zoledronic Acid alone (3 patients) or with the combination of steroids (oral prednisone, 3, and intravenous prednisolone, 2) with Zoledronic Acid.

For series [2] the following is noted: administration of Zometa; syndrome of fever, nausea, bone pain, arthralgia, myalgia, chills; cited from earlier work.
For series [3] the following is noted: in vivo; cited from earlier work.

With `O=P(O)(O)C(O)(Cn1ccnc1)P(=O)(O)O` [Zoledronic Acid], in series [1], the “patients who suffered from PDS” value was “All three”. Moreover, the “patients affected by post-dosing syndrome (PDS)” value in series [2] is on record as not above 44%. In series [3], the t1/2α was 14.4 min.
